Laboratory results published in PubChem BioAssay AID1919006 (Molecular Pharmacology Branch, DTP, NCI, 2023).

Test system: 885512-296-R-J2-PDC complex spheroid growth, % test/control
Experiment: Anticancer human tumor 885512-296-R-J2-PDC patient-derived breast carcinoma cell line growth inhibition [AhR]
Conditions: for IC50: curve of first compound; for viability, T/C: stronger effect = lower value; active means viability on the fitted dose curve at most 10% of control; inactive means the rest
Procedure, shortened: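 Spheroids combined tumor cells with HUVEC endothelial cells and human MSCs as stroma. AhR antagonists were paired with standard or investigational drugs, each dosed in half-log steps down from near clinical Cmax, or from 10 microM where Cmax was unknown.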

[1] = second compound 0.1 µM, first compound 0.00949 µM
[2] = second compound 0.1 µM, first compound 0.03 µM
[3] = second compound 0.1 µM, first compound 0.0949 µM
[4] = second compound 0.1 µM, first compound 0.3 µM
[5] = second compound 0.1 µM, first compound 0.949 µM
[6] = second compound 0.1 µM, first compound 3 µM
[7] = second compound 0.316 µM, first compound 0.00949 µM
[8] = second compound 0.316 µM, first compound 0.03 µM
[9] = second compound 0.316 µM, first compound 0.0949 µM
[10] = second compound 0.316 µM, first compound 0.3 µM
[11] = second compound 0.316 µM, first compound 0.949 µM
[12] = second compound 0.316 µM, first compound 3 µM
[13] = second compound 1 µM, first compound 0.00949 µM
[14] = second compound 1 µM, first compound 0.03 µM
[15] = second compound 1 µM, first compound 0.0949 µM
[16] = second compound 1 µM, first compound 0.3 µM
[17] = second compound 1 µM, first compound 0.949 µM
[18] = second compound 1 µM, first compound 3 µM
[19] = second compound 3.16 µM, first compound 0.00949 µM
[20] = second compound 3.16 µM, first compound 0.03 µM
[21] = second compound 3.16 µM, first compound 0.0949 µM
[22] = second compound 3.16 µM, first compound 0.3 µM
[23] = second compound 3.16 µM, first compound 0.949 µM
[24] = second compound 3.16 µM, first compound 3 µM
[25] = second compound 10 µM, first compound 0.00949 µM
[26] = second compound 10 µM, first compound 0.03 µM
[27] = second compound 10 µM, first compound 0.0949 µM
[28] = second compound 10 µM, first compound 0.3 µM
[29] = second compound 10 µM, first compound 0.949 µM
[30] = second compound 10 µM, first compound 3 µM
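Further: spheroids exposed to compounds for seven days.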

CC1COCCN1c1cc(C2(S(C)(=N)=O)CC2)nc(-c2ccnc3[nH]ccc23)n1 (stereo not given) + CC(CO)NC(=O)c1cc(-c2ccc(Cl)cc2)nn(-c2cnn(C)c2)c1=O
1140 nM: IC50 (second compound 3.16 µM)
671 nM: IC50 (second compound 10 µM)
active: viability, T/C (second compound 0.1 µM, first compound 10 µM) 5.46% | viability, T/C (second compound 0.316 µM, first compound 10 µM) 4.07% | viability, T/C (second compound 1 µM, first compound 10 µM) 5.36% | viability, T/C (second compound 3.16 µM, first compound 10 µM) 4.04% | viability, T/C (second compound 10 µM, first compound 10 µM) 4.98%
1680 nM: IC50 (second compound 0.1 µM)
1550 nM: IC50 (second compound 1 µM)
1800 nM: IC50 (second compound 0.316 µM)
inactive: viability, T/C (second compound 0.1 µM, first compound 0.0316 µM) 102% | viability, T/C (second compound 0.1 µM, first compound 0.1 µM) 96.4% | viability, T/C (second compound 0.1 µM, first compound 0.316 µM) 87% | viability, T/C (second compound 0.1 µM, first compound 1 µM) 76% | viability, T/C (second compound 0.1 µM, first compound 3.16 µM) 19.1% | viability, T/C (second compound 0.316 µM, first compound 0.0316 µM) 95.1% | viability, T/C (second compound 0.316 µM, first compound 0.1 µM) 102% | viability, T/C (second compound 0.316 µM, first compound 0.316 µM) 94.2% | viability, T/C (second compound 0.316 µM, first compound 1 µM) 84.4% | viability, T/C (second compound 0.316 µM, first compound 3.16 µM) 17.1% | viability, T/C (second compound 1 µM, first compound 0.0316 µM) 100% | viability, T/C (second compound 1 µM, first compound 0.1 µM) 97% | viability, T/C (second compound 1 µM, first compound 0.316 µM) 99% | viability, T/C (second compound 1 µM, first compound 1 µM) 70.3% | viability, T/C (second compound 1 µM, first compound 3.16 µM) 16.7% | viability, T/C (second compound 3.16 µM, first compound 0.0316 µM) 89.4% | viability, T/C (second compound 3.16 µM, first compound 0.1 µM) 83.5% | viability, T/C (second compound 3.16 µM, first compound 0.316 µM) 82.8% | viability, T/C (second compound 3.16 µM, first compound 1 µM) 55.1% | viability, T/C (second compound 3.16 µM, first compound 3.16 µM) 11.1% | viability, T/C (second compound 10 µM, first compound 0.0316 µM) 96.9% | viability, T/C (second compound 10 µM, first compound 0.1 µM) 95.3% | viability, T/C (second compound 10 µM, first compound 0.316 µM) 72.6% | viability, T/C (second compound 10 µM, first compound 1 µM) 38.3% | viability, T/C (second compound 10 µM, first compound 3.16 µM) 11.3%

CCN(c1cc(-c2ccc(CN3CCOCC3)cc2)cc(C(=O)NCc2c(C)cc(C)[nH]c2=O)c1C)C1CCOCC1 + CC(CO)NC(=O)c1cc(-c2ccc(Cl)cc2)nn(-c2cnn(C)c2)c1=O
> 3000 nM: IC50 (second compound 0.1 µM) | IC50 (second compound 0.316 µM) | IC50 (second compound 1 µM) | IC50 (second compound 3.16 µM) | IC50 (second compound 10 µM)
inactive: viability, T/C [1] 105% | viability, T/C [2] 96.8% | viability, T/C [3] 83.3% | viability, T/C [4] 79.6% | viability, T/C [5] 74.9% | viability, T/C [6] 84.1% | viability, T/C [7] 106% | viability, T/C [8] 102% | viability, T/C [9] 93% | viability, T/C [10] 78.9% | viability, T/C [11] 70.5% | viability, T/C [12] 69.1% | viability, T/C [13] 88.8% | viability, T/C [14] 111% | viability, T/C [15] 93.3% | viability, T/C [16] 82% | viability, T/C [17] 80.3% | viability, T/C [18] 80.9% | viability, T/C [19] 88.3% | viability, T/C [20] 90.3% | viability, T/C [21] 82.9% | viability, T/C [22] 86.7% | viability, T/C [23] 71.4% | viability, T/C [24] 78.2% | viability, T/C [25] 94.4% | viability, T/C [26] 97.5% | viability, T/C [27] 88% | viability, T/C [28] 86.4% | viability, T/C [29] 68.5% | viability, T/C [30] 71.7%

Nc1ncn(C2CC(O)C(CO)S2)c(=O)n1 (stereo not given) + CC(CO)NC(=O)c1cc(-c2ccc(Cl)cc2)nn(-c2cnn(C)c2)c1=O
234 nM: IC50 (second compound 3.16 µM)
273 nM: IC50 (second compound 0.1 µM)
inactive: viability, T/C (second compound 0.1 µM, first compound 0.000949 µM) 98.8% | viability, T/C (second compound 0.1 µM, first compound 0.003 µM) 117% | viability, T/C [1] 108% | viability, T/C [2] 125% | viability, T/C [3] 77% | viability, T/C [4] 47.5% | viability, T/C (second compound 0.316 µM, first compound 0.000949 µM) 106% | viability, T/C (second compound 0.316 µM, first compound 0.003 µM) 92.9% | viability, T/C [7] 146% | viability, T/C [8] 111% | viability, T/C [9] 80.5% | viability, T/C [10] 54.2% | viability, T/C (second compound 1 µM, first compound 0.000949 µM) 106% | viability, T/C (second compound 1 µM, first compound 0.003 µM) 104% | viability, T/C [13] 113% | viability, T/C [14] 127% | viability, T/C [15] 81.4% | viability, T/C [16] 54.1% | viability, T/C (second compound 3.16 µM, first compound 0.000949 µM) 97.9% | viability, T/C (second compound 3.16 µM, first compound 0.003 µM) 101% | viability, T/C [19] 112% | viability, T/C [20] 87.2% | viability, T/C [21] 72.2% | viability, T/C [22] 43.9% | viability, T/C (second compound 10 µM, first compound 0.000949 µM) 101% | viability, T/C (second compound 10 µM, first compound 0.003 µM) 96.3% | viability, T/C [25] 100% | viability, T/C [26] 93.1% | viability, T/C [27] 70.8% | viability, T/C [28] 48.2%
274 nM: IC50 (second compound 10 µM)
> 300 nM: IC50 (second compound 0.316 µM) | IC50 (second compound 1 µM)

O=C(C=Cn1cnc(-c2cc(C(F)(F)F)cc(C(F)(F)F)c2)n1)NNc1cnccn1 + CC(CO)NC(=O)c1cc(-c2ccc(Cl)cc2)nn(-c2cnn(C)c2)c1=O
62.9 nM: IC50 (second compound 0.1 µM)
inactive: viability, T/C [1] 91.7% | viability, T/C [2] 99.7% | viability, T/C [3] 24.6% | viability, T/C [7] 101% | viability, T/C [8] 98.8% | viability, T/C [9] 29.1% | viability, T/C [13] 94.2% | viability, T/C [14] 109% | viability, T/C [15] 33.4% | viability, T/C [19] 92.2% | viability, T/C [20] 111% | viability, T/C [21] 25.7% | viability, T/C [25] 114% | viability, T/C [26] 107% | viability, T/C [27] 24.1%
67.2 nM: IC50 (second compound 0.316 µM)
71.8 nM: IC50 (second compound 1 µM)
66.3 nM: IC50 (second compound 10 µM)
active: viability, T/C [4] 3.85% | viability, T/C [5] 2.45% | viability, T/C [6] 0.96% | viability, T/C [10] 3.67% | viability, T/C [11] 1.87% | viability, T/C [12] 0.84% | viability, T/C [16] 5.46% | viability, T/C [17] 1.59% | viability, T/C [18] 0.91% | viability, T/C [22] 6.14% | viability, T/C [23] 1.92% | viability, T/C [24] 0.85% | viability, T/C [28] 4.61% | viability, T/C [29] 2% | viability, T/C [30] 0.87%
65.6 nM: IC50 (second compound 3.16 µM)
